Reference: patent publication US4745109A, “Suicide inhibitors of aromatase” (Washington Research Foundation, priority 1984, dated 1988)
“Also recorded” adds a separate entry of the source. Read-outs that look alike come from different tables or passages of the source.

Tests used:
[1] = in vivo; cited from earlier work
[2] = molecular target: T1, aromatase (Homo sapiens, UniProt P11511); experiment: Irreversibility Experiments (diffusion dialysis), tritium release assay; type: biochemical; details: 250 nM inhibitor, preincubation 5 minutes at 30° C.
T1 construct: Placental microsomes were prepared as previously described; from tissue; host or cells: human placenta, microsomes
T1 sequence (P11511 1-503): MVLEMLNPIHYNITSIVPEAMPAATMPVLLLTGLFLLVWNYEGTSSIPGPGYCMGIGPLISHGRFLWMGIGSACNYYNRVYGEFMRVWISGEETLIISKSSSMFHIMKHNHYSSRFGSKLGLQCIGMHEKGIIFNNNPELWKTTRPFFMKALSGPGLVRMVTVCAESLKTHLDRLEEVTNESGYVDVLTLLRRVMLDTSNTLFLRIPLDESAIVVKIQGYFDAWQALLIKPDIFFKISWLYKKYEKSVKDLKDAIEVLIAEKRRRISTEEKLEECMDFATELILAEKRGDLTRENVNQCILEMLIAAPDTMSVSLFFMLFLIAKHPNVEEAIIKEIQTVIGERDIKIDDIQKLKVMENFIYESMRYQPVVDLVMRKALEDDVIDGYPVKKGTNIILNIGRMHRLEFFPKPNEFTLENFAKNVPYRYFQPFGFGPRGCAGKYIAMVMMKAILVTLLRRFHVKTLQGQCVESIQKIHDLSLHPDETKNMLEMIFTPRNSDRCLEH
Protocol: (§1) The activity of 17β-hydroxy-10β-mercaptoestr-4-en-3-one and 19-mercaptoandrost-4-en-3,17-dione were tested as suicide inhibitors of aromatase according to the method of Coury et al. (J. Biol. Chem., 256, 1076 (1981)) in human placental microsomes. The activity was measured by the well-established tritium release assay according to Thompson et al. (J. Biol. Chem., 249, 5364 (1974)) using 1β,2β-[^3 H]androstenedione (40-60 Ci/mole) obtained from New England Nuclear in Boston, MA.
(§2) Human placenta were obtained from the University Hospital, University of Washington, Seattle, WA, and were used within a few hours of delivery. Placental microsomes were prepared as previously described. (Coury et al). Protein concentration was determined by the method of Lowry (J. Biol. Chem., 193, 265 (1951)).
Incubations containing 1.8 mg/ml microsomal protein, 32 mg/ml propylene glycol, 0.7 mM NADPH, and 250 nM of inhibitor were kept at 4° C. For zero time points, 400 μl aliquots, in triplicate, were removed and added to tritium release assays. Remaining microsomes were incubated at 30° C. for 5 minutes, cooled in ice to 4° C.; and 400 μl aliquots, in triplicate, were added to tritium release assays to determine remaining activity. Remaining microsomes were added to dialysis tubing (Spectrapore® membrane tubing, 3500 dalton cut off) and dialyzed against a 10 mM phosphate buffer, pH 7.5, 100 mM KCl, 1 mM EDTA, and 5% propylene glycol at 0° C. for 20 hours. To serve as controls, incubations containing the same concentrations of inhibitor, but no cofactors, were carried through the same procedures.
After dialysis, 400 μl aliquots, in duplicate, were added to 100 μl phosphate buffer containing 2.9 mM NADPH and 40 μM 1β,2β[^3 H]androstenedione (20 Ci/mol) and incubated at 37° C. for 10 minutes. The usual workup for the tritium release assay was followed. Protein content for all incubations fell approximately 25% after dialysis. Enzyme activity fell approximately 60% after dialysis.

[3] = molecular target: T1, aromatase; experiment: Concentration-Dependent Inactivation (rate constant of inactivation); type: biochemical; details: relative to 19-mercaptoandrost-4-en-3,17-dione
Protocol: as §1, §2
Incubations containing 1.0 mg/ml microsomal protein, 32 mg/ml propylene glycol, and 0.36 mM NADPH were warmed to 30° C. for 5 minutes. Various concentrations of inhibitor were added to the incubations in ethanol (10 μl/ml of incubate). Ethanol (10 μl/ml was) added as a control. After incubating 0, 1, 2, and 3 minutes at 30° C., 400 μl aliquots, in duplicate, were removed and were added to the tritium release assay described above.

[4] = molecular target: T1, aromatase; experiment: NADPH and Oxygen Dependency Experiments: aromatase inactivation in placental microsomes, tritium release assay; type: biochemical; details: 500 nM inhibitor, preincubation 3 minutes at 30° C., not corrected for background loss (approximately 5%)
Protocol: as §1, §2
(§3) All incubations were carried out in 10 mM phosphate buffer, pH 7.5, 100 mM KCl, 1/mM EDTA. Incubations contained 1.0 mg/ml microsomal protein, 32 mg/ml propylene glycol, 0.36 mM NADPH, 11.5 mM glucose-6-phosphate dehydrogenase and 10 mM MgCl2 and were allowed to warm to 30° C. for 5 minutes. Inhibitors were added as 10 μl/ml from 10 μM stock solutions in ethanol to give final inhibitor concentrations of 100 nM. At various times, from 0 to 70 minutes, 400 μl aliquots in duplicate were removed and were added to […] of a 10 mM phosphate buffer, pH 7.5, 100 mM KCl, 1 mM EDTA containing 40 μM 1β,2β,[^3 H]androstenedione (20 Ci/mol). Tritium release incubations were conducted at 37° C. for 10 minutes and stopped by addition of 5 ml 20% acetone/chloroform. Following vortexing at high speeds for 30 seconds and centrifugation, 100 μl of the water layer was removed and mixed with 5 ml LSC cocktail and counted. Percent activity remaining is the number of DPMs after a time period divided by the number of DPMs at time zero multiplied by 100.
Incubations containing 1.0 mg/ml microsomal protein, 32 mg/ml propylene glycol, with or without 0.36 mM NADPH, were warmed to 30° C. for 5 minutes. Inhibitors were added in ethanol (10 μl/ml of incubate) to give inhibitor concentrations of 500 nM. Controls contained only ethanol and NADPH. After incubating 0 and 3 minutes at 30° C., 400 μl aliquots, in duplicate, from the NADPH containing incubations were added to the tritium release assay. For incubations lacking NADPH, 400 μl aliquots were removed and added to 100 μl phosphate buffer containing 1.4 mM NADPH and […] 1β,2β[^3 H]androstenedione (20 Ci/mol). Tritium release assays were conducted as described above.
Incubations containing 1.0 mg/ml microsomal protein, 32 mg/ml propylene glycol, and 500 nM inhibitor or ethanol (10 μl/ml) were prepared. Incubations run under anaerobic conditions were alternately evacuated and purged with deoxygenated nitrogen ten times at 0° C. Both anaerobic and aerobic incubations were allowed to warm to 30° C. for 5 minutes, and 10 μl/ml of a 1.4 mM NADPH solution was added via a syringe. After incubating 0 and 3 minutes at 30° C., triplicate aliquots of 400 μl were removed and added to tritium release assays.

[5] = molecular target: T1, aromatase; experiment: Androstenedione and Cysteine Protection Experiments (t1/2 of aromatase inactivation), tritium release assay; type: biochemical; details: 1 at 500 nM, 2 at 167 nM, 30° C., NADPH, not corrected for background loss; for t1/2 (mean ± SD), time to bring about a 50% inhibition of aromatase: inhibitor alone; for t1/2 (mean ± SD), inhibitor and androstenedione: with androstenedione 5.0 μM; for t1/2 (mean ± SD), inhibitor and cysteine: with cysteine 1.0 mM
Protocol: as §1, §2, §3
Incubations containing 1.0 mg/ml microsomal protein, 32 mg/ml propylene glycol, and 0.36 mM NADPH were warmed to 30° C. for 5 minutes. Addition of ethanol solutions (10 μl/ml) of inhibitors with and without androstenedione gave final concentrations of 500 nM 17β-hydroxy-10β-mercaptoestr-4-en-3-one, 167 nM 19-mercaptoandrost-4-en-3,17-dione, with and without 5.0 μM androstenedione. After 0, 1, 2, and 3 minutes at 30° C., 400 μl aliquots, in duplicate, were removed and added to the tritium release assay.
Incubations containing 1.0 mg/ml microsomal protein, 32 mg/ml propylene glycol, and 0.36 mM NADPH, with or without 1.0 mM cysteine, were warmed to 30° C. for 5 minutes. Addition of inhibitor solution (10 μl/ml) gave final concentrations of 500 nM 17β-hydroxy-10β-mercapto-4-en-3-one and 167 nM 19-mercaptoandrost-4-en-3,17-dione. After incubating 0, 1, 2, and 3 minutes, 400 μl aliquots, in duplicate, were removed and added to tritium release assays.

[6] = after dialysis 20 hours at 0° C., read-out: Activity Remaining (mean ± SD), After Dialysis
[7] = 5 min, before dialysis, read-out: Activity Remaining (mean ± SD), Before Dialysis
[8] = N2 atmosphere (anaerobic), read-out: % Activity Remaining (mean ± SD), + N2 atmosphere
[9] = with NADPH, aerobic, read-out: % Activity Remaining (mean ± SD)
[10] = without NADPH, read-out: % Activity Remaining (mean ± SD), - NADPH

| Structure (SMILES) | side effects [1] | remaining activity at 0.25 µM [2, 6] | remaining activity at 0.25 µM [2, 7] | rate constant ratio, 17β-hydroxy-10β-mercaptoestr-4-en-3-one vs 19-mercaptoandrost-4-en-3,17-dione [3] | remaining activity at 0.5 µM [4, 8] | remaining activity at 0.5 µM [4, 9] | remaining activity at 0.5 µM [4, 10] | t1/2 (mean ± SD), time to bring about a 50% inhibition of aromatase [5] | t1/2 (mean ± SD), inhibitor and androstenedione [5] | t1/2 (mean ± SD), inhibitor and cysteine [5] |
| --- | --- | --- | --- | --- | --- | --- | --- | --- | --- | --- |
| CCC1(c2ccc(N)cc2)CCC(=O)NC1=O (stereo not drawn) [aminoglutethimide] | lethargy or tumor lysis syndrome; also recorded: sedative which has the side effect of lethargy |  |  |  |  |  |  |  |  |  |
| C[C@]12CC[C@H]3[C@@H](CCC4=CC(=O)CC[C@@]43S)[C@@H]1CC[C@@H]2O [compound 1, 17β-hydroxy-10β-mercaptoestr-4-en-3-one] |  | 52 ± 3% | 49 ± 6% | about three | 95 ± 2% | 67 ± 2% | 96 ± 3% | 4.68 ± 0.833 min | 12.6 ± 0.833 min | 5.17 ± 0.967 min |
| C[C@]12CC[C@H]3[C@@H](CCC4=CC(=O)CC[C@@]43CS)[C@@H]1CCC2=O [compound 2, 19-mercaptoandrost-4-en-3,17-dione] |  | 58 ± 2% | 50 ± 5% |  | 95 ± 5% | 77 ± 4% | 95 ± 5% | 7.7 ± 1.25 min | 12.2 ± 0.35 min | 6.87 ± 0.333 min |
